For the test, the target named is Procathepsin L (Homo sapiens) (UniProt P07711). As to the kind of experiment: CTSL inhibition IC50, probe compound – biochemical, dose response (AID 1633). The conditions noted are these: purified cathepsin L, fluorogenic substrate, enzyme inhibition.
Procathepsin L (Homo sapiens), sequence (P07711 114-288 limits assumed): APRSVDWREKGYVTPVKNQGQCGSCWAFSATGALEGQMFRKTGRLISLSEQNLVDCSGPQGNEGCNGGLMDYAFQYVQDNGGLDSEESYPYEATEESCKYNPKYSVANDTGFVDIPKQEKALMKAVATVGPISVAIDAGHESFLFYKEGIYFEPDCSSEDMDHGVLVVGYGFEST
Procathepsin L (Homo sapiens), sequence (P07711 292-333 limits assumed): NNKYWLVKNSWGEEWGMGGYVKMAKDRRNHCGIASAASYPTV

With `CCc1ccccc1NC(=O)CSC(=O)NNC(=O)[C@H](Cc1c[nH]c2ccccc12)NC(=O)OC(C)(C)C`, the IC50 is 201 nM.

In general, IC50 refers to the concentration needed to halve the response being measured.

(Values after PubChem BioAssay AID1633 (PCMD, 2009).)
